The values that follow come from patent US11225492B2, “Heterocycles useful as anti-cancer agents” (Hangzhou Innogate Pharma Co., Ltd., priority 2015, dated 2022).

Structures are written as SMILES. Like-named read-outs stand apart in the source and are kept apart here.

The term IC50 denotes the concentration at which inhibition is half-maximal.

Common to all, as to type: biochemical
The target of one assay is CDK6/cycD3 (Homo sapiens (Human), UniProt Q00534). The assay can be described thus: CDK6/cycD3 kinase Mobility Shift Assay. The settings on record: CDK6/cycD3 15 nM, ATP Km 800 μM, 60 min, 28° C. As to the method:
(§1) 1. CDK2, CDK4 and CDK6 Kinase Assays:
(§2) CDK2/CycA2 and CDK6/cycD3 were assayed under buffer conditions in the presence of 50 mM HEPES (pH 7.5), 10 mM MgCl2, 0.0015% Brij-35, and 2 mM dithiothreitol, CDK4/CycD3 with buffer condition of 20 mM HEPES (pH 7.5), 10 mM MgCl2, 0.01% Triton X-100, and 2 mM dithiothreitol. Prepare compounds to 50× of the final desired highest inhibitor concentration by 100% DMSO and serial dilution in 3-fold for total of 10 concentrations. […] After assay for 60 min, 180 min, 60 min respectively at 28° C., reactions were terminated with stop solution (50 mM EDTA, 0.015% Brij-35, 0.2% Coating Reagent #3 and 100 mM HEPES (pH 7.5)). Collect conversion on Caliper EZ Reader. IC50 values were calculated by fitting the dose-response curves with Xlfit excel add-in version 4.3.1.

A further assay deals with CDK4/CycD3 (Homo sapiens (Human), UniProt P11802). The assay can be described thus: CDK4/CycD3 kinase Mobility Shift Assay. As to the method:
as §1, §2

Another assay addresses CDK2/CycA2 (Homo sapiens (Human), UniProt P24941). As to the kind of experiment: CDK2/CycA2 kinase Mobility Shift Assay. As to conditions: CDK2/CycA2 12 nM, ATP Km 39 μM, 60 min, 28° C. As for the experimental part:
as §1, §2

In a further assay the target is HDAC-6 (Homo sapiens (Human), UniProt Q9UBN7). The assay can be described thus: HDAC-6 fluorogenic deacetylase assay. As to conditions: recombinant, full-length protein, Ac-peptide-AMC substrate; read-out: HDAC6 (IC50). As to the method: (§3) 2. HDAC-1, HDAC-2 and HDAC-6 Assays:
(§4) The inhibitory effect of compounds on HDAC-1, HDAC-2 and HDAC-6 function was determined in vitro using an optimized homogenous assay performed in 384-well plate format. In this assay, recombinant, full-length HDAC-1, HDAC-2 or HDAC-6 protein (BPS Biosciences) was incubated with Ac-peptide-AMC with concentration in Km plot. Reactions were performed in Tris-based assay buffer and followed for fluorogenic release of 7-amino-4-methylcoumarin from substrate upon deacetylase and trypsin enzymatic activity. Fluorescence measurements were obtained using a multilabel plate reader (Synergy MX with excitation at 355 nm and emission at 460 nm). Data were analyzed on a plate-by-plate basis for the linear range of fluorescence over time. Fit the data in GraphPad Prism V5.0 software to obtain IC50 values using equation (Y=Bottom+(Top−Bottom)/(1+10^((Log IC50−X)*Hill Slope), Y is % inhibition and X is compound concentration).

For the next assay, the target named is HDAC-1 (Homo sapiens (Human), UniProt Q13547). As to the kind of experiment: HDAC-1 fluorogenic deacetylase assay. The settings on record: recombinant, full-length protein, Ac-peptide-AMC substrate; read-out: HDAC1 (IC50). As to the method: as §3, §4
HDAC-1, sequence (Q13547 whole entry): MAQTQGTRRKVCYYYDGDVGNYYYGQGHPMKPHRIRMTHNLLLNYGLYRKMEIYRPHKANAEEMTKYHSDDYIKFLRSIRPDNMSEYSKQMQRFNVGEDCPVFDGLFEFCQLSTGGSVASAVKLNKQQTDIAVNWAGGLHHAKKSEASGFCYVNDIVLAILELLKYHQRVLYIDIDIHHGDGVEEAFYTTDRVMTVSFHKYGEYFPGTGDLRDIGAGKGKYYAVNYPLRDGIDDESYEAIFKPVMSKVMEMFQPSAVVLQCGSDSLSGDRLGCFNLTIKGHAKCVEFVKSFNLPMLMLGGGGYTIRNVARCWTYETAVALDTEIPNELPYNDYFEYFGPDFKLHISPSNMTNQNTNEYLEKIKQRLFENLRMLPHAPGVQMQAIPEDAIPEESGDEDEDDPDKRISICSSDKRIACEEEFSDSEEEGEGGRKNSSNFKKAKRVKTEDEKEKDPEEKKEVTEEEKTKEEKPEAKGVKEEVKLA
Where [1] appears, read: CDK4/CycD3 10 nM, ATP Km 221 μM, 180 min, 28° C.

CDK6/cycD3, sequence (Q00534 whole entry, species assumed): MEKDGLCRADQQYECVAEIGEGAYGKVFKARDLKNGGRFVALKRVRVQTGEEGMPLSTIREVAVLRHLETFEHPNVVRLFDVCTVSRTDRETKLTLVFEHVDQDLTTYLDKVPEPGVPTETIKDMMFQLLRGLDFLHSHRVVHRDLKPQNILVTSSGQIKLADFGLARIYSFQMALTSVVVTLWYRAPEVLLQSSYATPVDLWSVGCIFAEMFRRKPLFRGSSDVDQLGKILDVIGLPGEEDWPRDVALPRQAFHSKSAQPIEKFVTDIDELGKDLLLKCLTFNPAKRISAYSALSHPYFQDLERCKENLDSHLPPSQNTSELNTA
CDK6/cycD3, sequence (P30281 whole entry partner, species assumed): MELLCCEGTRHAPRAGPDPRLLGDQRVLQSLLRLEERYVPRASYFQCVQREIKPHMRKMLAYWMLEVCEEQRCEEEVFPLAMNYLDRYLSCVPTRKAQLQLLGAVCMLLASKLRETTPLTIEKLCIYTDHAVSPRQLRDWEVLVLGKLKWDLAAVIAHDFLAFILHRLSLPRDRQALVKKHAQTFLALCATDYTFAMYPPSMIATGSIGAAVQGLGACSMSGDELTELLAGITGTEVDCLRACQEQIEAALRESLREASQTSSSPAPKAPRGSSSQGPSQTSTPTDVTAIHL
HDAC-6, sequence (Q9UBN7 whole entry): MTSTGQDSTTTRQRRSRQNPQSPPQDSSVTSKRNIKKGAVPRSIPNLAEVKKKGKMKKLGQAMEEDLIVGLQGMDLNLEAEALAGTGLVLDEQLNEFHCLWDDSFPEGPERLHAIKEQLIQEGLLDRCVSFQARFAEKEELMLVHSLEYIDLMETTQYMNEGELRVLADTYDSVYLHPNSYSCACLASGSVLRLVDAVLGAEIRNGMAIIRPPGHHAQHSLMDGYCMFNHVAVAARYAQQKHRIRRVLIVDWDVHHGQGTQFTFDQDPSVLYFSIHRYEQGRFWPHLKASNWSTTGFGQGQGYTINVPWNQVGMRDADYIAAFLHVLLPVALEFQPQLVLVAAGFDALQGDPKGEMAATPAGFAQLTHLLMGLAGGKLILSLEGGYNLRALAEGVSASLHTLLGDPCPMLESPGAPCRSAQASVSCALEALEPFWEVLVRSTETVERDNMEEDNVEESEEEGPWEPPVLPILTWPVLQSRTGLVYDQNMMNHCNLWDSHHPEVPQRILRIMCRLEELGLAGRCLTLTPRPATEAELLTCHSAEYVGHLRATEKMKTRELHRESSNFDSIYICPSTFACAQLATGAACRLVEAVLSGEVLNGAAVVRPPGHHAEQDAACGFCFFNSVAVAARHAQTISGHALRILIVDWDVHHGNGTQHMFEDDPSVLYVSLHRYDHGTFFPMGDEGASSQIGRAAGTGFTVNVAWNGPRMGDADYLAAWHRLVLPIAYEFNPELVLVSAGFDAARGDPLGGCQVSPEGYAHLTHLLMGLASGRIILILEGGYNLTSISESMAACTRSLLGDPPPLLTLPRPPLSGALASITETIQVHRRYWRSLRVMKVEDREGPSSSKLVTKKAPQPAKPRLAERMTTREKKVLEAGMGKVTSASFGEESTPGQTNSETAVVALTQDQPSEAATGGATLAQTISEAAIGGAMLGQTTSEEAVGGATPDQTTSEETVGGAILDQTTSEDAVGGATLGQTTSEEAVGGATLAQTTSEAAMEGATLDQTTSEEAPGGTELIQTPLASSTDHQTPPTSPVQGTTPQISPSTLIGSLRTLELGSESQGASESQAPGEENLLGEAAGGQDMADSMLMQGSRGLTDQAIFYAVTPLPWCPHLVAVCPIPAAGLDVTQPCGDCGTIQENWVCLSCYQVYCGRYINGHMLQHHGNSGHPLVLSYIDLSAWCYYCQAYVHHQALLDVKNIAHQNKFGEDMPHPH
CDK4/CycD3, sequence (P11802 whole entry, species assumed): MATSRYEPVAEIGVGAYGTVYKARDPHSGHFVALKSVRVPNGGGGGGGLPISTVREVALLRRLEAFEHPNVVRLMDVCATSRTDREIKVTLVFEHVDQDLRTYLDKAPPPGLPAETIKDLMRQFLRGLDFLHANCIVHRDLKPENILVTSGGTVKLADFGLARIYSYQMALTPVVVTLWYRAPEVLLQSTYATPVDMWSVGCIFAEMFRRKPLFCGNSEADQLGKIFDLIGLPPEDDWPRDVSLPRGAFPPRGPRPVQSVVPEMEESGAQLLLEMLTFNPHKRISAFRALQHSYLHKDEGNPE
CDK4/CycD3, sequence (P30281 whole entry partner, species assumed): as the sequence (P30281 whole entry partner, species assumed) above

Consider `CC(=O)c1c(C)c2cnc(Nc3ccc(N4CC5CNCC(C4)C5(F)F)cn3)nc2n(C2CCCC2)c1=O` [Compound 4-2, 6-acetyl-8-cyclopentyl-2-(5-(9,9-difluoro-3,7-diazabicyclo[3.3.1]nonan-3-yl)pyridin-2-ylamino)-5-methylpyrido[2,3-d]pyrimidin-7(8H)-one], for which the IC50 on CDK6/cycD3 is less than 100 nM; on CDK4/CycD3 (setting [1]), less than 50 nM.
Turning to `CC(=O)c1c(C)c2cnc(Nc3ccc(N4CCN(CCCCCCCC(=O)NO)CC4)cn3)nc2n(C2CCCC2)c1=O` [Compound 15, 8-(4-(6-((6-acetyl-8-cyclopentyl-5-methyl-7-oxo-7,8-dihydropyrido[2,3-d]pyrimidin-2-yl)amino)pyridin-3-yl)piperazin-1-yl)-N-hydroxyoctanamide], the IC50 on CDK2/CycA2 is more than 1000 nM; at CDK6/cycD3 it was less than 25 nM; at CDK4/CycD3 (setting [1]), less than 10 nM; on HDAC-6 it was less than 50 nM; on HDAC-1 it was less than 500 nM.
For the compound `CC(=O)c1c(C)c2cnc(Nc3ccc4c(n3)CCNC4)nc2n(C2CCCC2)c1=O` [Compound 8, 6-acetyl-8-cyclopentyl-5-methyl-2-(5,6,7,8-tetrahydro-1,6-naphthyridin-2-ylamino)pyrido[2,3-d]pyrimidin-7(8H)-one], the results for the IC50 at CDK2/CycA2, at CDK6/cycD3 and at CDK4/CycD3 were more than 1000 nM, less than 100 nM and less than 10 nM, respectively.
With `CC(=O)c1c(C)c2cnc(Nc3ccc(N4CCN(CCCCCCC(=O)NO)CC4)cn3)nc2n(C2CCCC2)c1=O` [Compound 14, 7-(4-(6-(6-acetyl-8-cyclopentyl-5-methyl-7-oxo-7,8-dihydropyrido[2,3-d]pyrimidin-2-ylamino)pyridin-3-yl)piperazin-1-yl)-N-hydroxyheptanamide], the IC50 on CDK6/cycD3 was less than 10 nM; at CDK4/CycD3 (setting [1]), less than 10 nM; on HDAC-6 it was less than 50 nM; on HDAC-1, less than 500 nM.
As to `CC(=O)c1c(C)c2cnc(Nc3ccc(N4CCN(C(=O)CCCCCCC(=O)NO)CC4)cn3)nc2n(C2CCCC2)c1=O` [Compound 12, 8-(4-(6-(6-acetyl-8-cyclopentyl-5-methyl-7-oxo-7,8-dihydropyrido[2,3-d]pyrimidin-2-ylamino)pyridin-3-yl)piperazin-1-yl)-N-hydroxy-8-oxooctanamide], the IC50 on CDK2/CycA2 was more than 10000 nM; on CDK6/cycD3 it was less than 25 nM; at CDK4/CycD3 (setting [1]) it was less than 10 nM; on HDAC-6 it was less than 10 nM; on HDAC-1 it was less than 50 nM.
Regarding `CC(=O)c1c(C)c2cnc(Nc3ccc(N4CC5CNCC(C4)C5(F)F)cn3)nc2n(C2CCCC2)c1=O` (single isomer, unassigned) [Compound 4-1, 6-acetyl-8-cyclopentyl-2-(5-(9,9-difluoro-3,7-diazabicyclo[3.3.1]nonan-3-yl)pyridin-2-ylamino)-5-methylpyrido[2,3-d]pyrimidin-7(8H)-one], the IC50 on CDK2/CycA2 is less than 1000 nM; on CDK6/cycD3, less than 100 nM; on CDK4/CycD3 (setting [1]), less than 25 nM.
With `CC(=O)c1c(C)c2cnc(Nc3ccc(N4CC5CNCC(C4)O5)cn3)nc2n(C2CCCC2)c1=O` [Compound 2, 2-(5-(9-oxa-3,7-diazabicyclo[3.3.1]nonan-3-yl)pyridin-2-ylamino)-6-acetyl-8-cyclopentyl-5-methylpyrido[2,3-d]pyrimidin-7(8H)-one], the values for the IC50 on CDK2/CycA2, at CDK6/cycD3 and on CDK4/CycD3 (setting [1]) were more than 5000 nM, less than 100 nM and less than 25 nM, respectively.
The matching figures for `CC(=O)c1c(C)c2cnc(Nc3ccc(N4CCC5(CC4)CNC5)cn3)nc2n(C2CCCC2)c1=O` [Compound 3, 2-(5-(2,7-Diazaspiro[3.5]nonan-7-yl)pyridin-2-ylamino)-6-acetyl-8-cyclopentyl-5-methylpyrido[2,3-d]pyrimidin-7(8H)-one]: more than 5000 nM, less than 25 nM and less than 10 nM.
Regarding `CC(=O)c1c(C)c2cnc(Nc3ccc(C(=O)NCCCCCCC(=O)NO)cn3)nc2n(C2CCCC2)c1=O` [Compound 18, 6-((6-acetyl-8-cyclopentyl-5-methyl-7-oxo-7,8-dihydropyrido[2,3-d]pyrimidin-2-yl)amino)-N-(7-(hydroxyamino)-7-oxoheptyl)nicotinamide], the IC50 on CDK2/CycA2 is more than 1000 nM; on CDK6/cycD3, less than 1000 nM; on CDK4/CycD3 (setting [1]) it was less than 50 nM; on HDAC-6, less than 10 nM; at HDAC-1, less than 50 nM.
For the compound `CC(=O)c1c(C)c2cnc(Nc3ccc(N4CC5CNCC(C5)C4)cn3)nc2n(C2CCCC2)c1=O` [Compound 1, 2-(5-(3,7-diazabicyclo[3.3.1]nonan-3-yl)pyridin-2-ylamino)-6-acetyl-8-cyclopentyl-5-methylpyrido[2,3-d]pyrimidin-7(8H)-one], the IC50 on CDK2/CycA2 is more than 5000 nM; on CDK6/cycD3, less than 25 nM; at CDK4/CycD3 (setting [1]), less than 10 nM.
On the same counts, the results for `CC(=O)c1c(C)c2cnc(Nc3ccc(N4CCCC5(CCNCC5)C4)cn3)nc2n(C2CCCC2)c1=O` [Compound 6, 2-(5-(2,9-diazaspiro[5.5]undecan-2-yl)pyridin-2-ylamino)-6-acetyl-8-cyclopentyl-5-methylpyrido[2,3-d]pyrimidin-7(8H)-one] are more than 5000 nM, less than 25 nM and less than 10 nM.
Consider `CC(=O)c1c(C)c2cnc(Nc3ccc(C(=O)NO)cn3)nc2n(C2CCCC2)c1=O` [Compound 17, 6-((6-acetyl-8-cyclopentyl-5-methyl-7-oxo-7,8-dihydropyrido[2,3-d]pyrimidin-2-yl)amino)-N-hydroxynicotinamide], for which the IC50 is more than 1000 nM at CDK2/CycA2; less than 500 nM at CDK6/cycD3; less than 50 nM at CDK4/CycD3 (setting [1]); less than 50 nM on HDAC-6; less than 500 nM on HDAC-1.
As for `CC(=O)c1c(C)c2cnc(Nc3ccc(N4CCN(C(=O)CCCC(=O)NO)CC4)cn3)nc2n(C2CCCC2)c1=O` [Compound 13, 5-(4-(6-(6-acetyl-8-cyclopentyl-5-methyl-7-oxo-7,8-dihydropyrido[2,3-d]pyrimidin-2-ylamino)pyridin-3-yl)piperazin-1-yl)-N-hydroxy-5-oxopentanamide], the IC50 at CDK2/CycA2 was more than 1000 nM; at CDK6/cycD3, less than 50 nM; on CDK4/CycD3 (setting [1]), less than 25 nM.
Regarding `CC(=O)c1c(C)c2cnc(Nc3ccc(N4CCN(Cc5ccc(C(=O)NO)cc5)CC4)cn3)nc2n(C2CCCC2)c1=O` [Compound 16, 4-((4-(6-((6-acetyl-8-cyclopentyl-5-methyl-7-oxo-7,8-dihydropyrido[2,3-d]pyrimidin-2-yl)amino)pyridin-3-yl)piperazin-1-yl)methyl)-N-hydroxybenzamide], the IC50 on CDK2/CycA2 is more than 1000 nM; on CDK6/cycD3, less than 50 nM; at CDK4/CycD3 (setting [1]), less than 10 nM; at HDAC-6, less than 10 nM; at HDAC-1, less than 500 nM.
